Results: US12122761B2, “2-azaspiro[3.4]octane derivatives as M4 agonists” (NOVARTIS AG, priority 2019, dated 2024)

Key:
[1] = target: T1, human cloned CHRM3 receptor (M3_CHO cells) (Homo sapiens, UniProt P20309); assay: CHRM3 Ca++ Flux Assay (agonist mode, FDSS 7000EX); format: cell-based; conditions: for M3 FDSS PA / Emax: Percent Activity measured to EC100 of Carbachol; for EC50: agonist mode, geometric mean if tested more than once, read-out: M3 FDSS EC50; for Emax: read-out: M3 FDSS PA
T1 construct: expressed in transfected cells; host or cells: CHO-K1
Outline: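 Agonist-mode calcium flux: 11-point dose responses, triplicate wells, fluorescence followed for 3 minutes. Cells are M3_CHO or M5_CHO lines (human receptors) with Ca++ indicator in probenecid-containing HEPES/HBSS buffer. Percent activity is referenced to carbachol EC100, and curves come from four-parameter nonlinear regression.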

[2] = target: T2, human cloned CHRM4 receptor (M4_CHO cells) (Homo sapiens, UniProt P08173); assay: CHRM4 Ca++ Flux Assay (agonist mode, FDSS 7000EX); format: cell-based; conditions: for M4 FDSS PA / Emax: Percent Activity; for EC50: geometric mean if tested more than once, read-out: M4 FDSS EC50; for Emax: read-out: M4 FDSS PA
T2 construct: expressed in transfected cells; host or cells: CHO-K1
T2 sequence (P08173 1-479): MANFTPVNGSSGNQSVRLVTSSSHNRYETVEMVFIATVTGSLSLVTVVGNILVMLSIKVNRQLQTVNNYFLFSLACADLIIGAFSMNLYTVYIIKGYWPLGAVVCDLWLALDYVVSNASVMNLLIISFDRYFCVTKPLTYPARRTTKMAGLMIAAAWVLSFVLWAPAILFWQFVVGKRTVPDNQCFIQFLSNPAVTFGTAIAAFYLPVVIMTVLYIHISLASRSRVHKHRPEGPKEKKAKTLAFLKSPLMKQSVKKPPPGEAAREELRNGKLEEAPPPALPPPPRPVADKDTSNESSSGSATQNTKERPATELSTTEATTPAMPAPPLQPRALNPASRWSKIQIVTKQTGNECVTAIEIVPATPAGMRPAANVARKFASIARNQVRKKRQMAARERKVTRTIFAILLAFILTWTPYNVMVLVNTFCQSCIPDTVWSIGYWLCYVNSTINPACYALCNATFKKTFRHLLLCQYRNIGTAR
Outline: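 Agonist-mode response was expressed as percent of the Carbachol EC100 and fitted with four-parameter nonlinear regression over an 11-point triplicate dose series. Intracellular Ca++ was tracked for 3 min by fluorescent dye in CHO-K1 cells stably expressing human CHRM4. Cells were preincubated 60 min with 20 μM ATP in buffer containing 2.5 mM probenecid.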

T1 sequence (P20309 whole entry): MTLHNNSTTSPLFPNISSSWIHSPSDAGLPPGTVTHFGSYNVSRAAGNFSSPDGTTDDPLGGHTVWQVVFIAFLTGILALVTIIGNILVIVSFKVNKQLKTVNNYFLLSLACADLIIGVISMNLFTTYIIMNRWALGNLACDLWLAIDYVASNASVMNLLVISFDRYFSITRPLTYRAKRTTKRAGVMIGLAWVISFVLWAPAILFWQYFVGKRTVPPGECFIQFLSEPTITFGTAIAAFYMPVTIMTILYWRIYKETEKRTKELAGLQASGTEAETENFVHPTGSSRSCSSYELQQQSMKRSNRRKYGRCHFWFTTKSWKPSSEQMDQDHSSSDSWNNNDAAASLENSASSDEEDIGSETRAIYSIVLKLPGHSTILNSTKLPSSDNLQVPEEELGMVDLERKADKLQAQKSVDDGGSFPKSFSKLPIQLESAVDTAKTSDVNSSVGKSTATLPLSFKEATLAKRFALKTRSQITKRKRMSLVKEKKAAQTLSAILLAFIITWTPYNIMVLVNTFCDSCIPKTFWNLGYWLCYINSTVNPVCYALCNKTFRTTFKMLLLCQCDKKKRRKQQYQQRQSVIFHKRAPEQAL

Compound: O=C(N1CC2(CC[C@@H](N3CCC(c4cc(F)ccc4OC4CC5(COC5)C4)CC3)C2)C1)C1(F)CC1 (single isomer, unassigned) [Example 11B, (R)-(6-(4-(2-((2-oxaspiro[3.3]heptan-6-yl)oxy)-5-fluorophenyl)piperidin-1-yl)-2-azaspiro[3.4]octan-2-yl)(1-fluorocyclopropyl)methanone or (S)-(6-(4-(2-((2-oxaspiro[3.3]heptan-6-yl)oxy)-5-fluorophenyl)piperidin-1-yl)-2-azaspiro[3.4]octan-2-yl)(1-fluorocyclopropyl)methanone]
- M3 FDSS PA [1]: 0%
- EC50 [1]: > 25000 nM
- M4 FDSS PA [2]: 51%
- EC50 [2]: 2 nM

Compound: O=C(N1CC2(CC[C@@H](N3CCC(c4ccccc4OC4CC5(COC5)C4)CC3)C2)C1)C1(F)CC1 (single isomer, unassigned) [Example 11C, (R)-(6-(4-(2-((2-oxaspiro[3.3]heptan-6-yl)oxy)phenyl)piperidin-1-yl)-2-azaspiro[3.4]octan-2-yl)(1-fluorocyclopropyl)methanone or (S)-(6-(4-(2-((2-oxaspiro[3.3]heptan-6-yl)oxy)phenyl)piperidin-1-yl)-2-azaspiro[3.4]octan-2-yl)(1-fluorocyclopropyl)methanone]
- M3 FDSS PA [1]: −1%
- EC50 [1]: > 25000 nM
- M4 FDSS PA [2]: 47%
- EC50 [2]: 2 nM

Compound: O=C(N1CC2(CC[C@@H](N3CCC(c4ccccc4OC4CC5(COC5)C4)CC3)C2)C1)C1(F)CC1 (single isomer, unassigned) [Example 11D, (R)-(6-(4-(2-((2-oxaspiro[3.3]heptan-6-yl)oxy)phenyl)piperidin-1-yl)-2-azaspiro[3.4]octan-2-yl)(1-fluorocyclopropyl)methanone or (S)-(6-(4-(2-((2-oxaspiro[3.3]heptan-6-yl)oxy)phenyl)piperidin-1-yl)-2-azaspiro[3.4]octan-2-yl)(1-fluorocyclopropyl)methanone]
- M3 FDSS PA [1]: 0%
- EC50 [1]: > 25000 nM
- M4 FDSS PA [2]: 38%
- EC50 [2]: 97 nM

Compound: Fc1ccc(OC2CC3(COC3)C2)c(C2CCN([C@@H]3CCC4(C3)CN(c3nnco3)C4)CC2)c1 [Example 1B, (R)-2-(6-(4-(2-((2-oxaspiro[3.3]heptan-6-yl)oxy)-5-fluorophenyl)piperidin-1-yl)-2-azaspiro[3.4]octan-2-yl)-1,3,4-oxadiazole]
- Emax [1]: 0%
- EC50 [1]: > 25000 nM
- Emax [2]: 69%
- EC50 [2]: 1 nM

Compound: c1ccc(C2CCN([C@@H]3CCC4(C3)CN(c3nnco3)C4)CC2)c(OC[C@H]2COCCO2)c1 [Example 1C, 2-((R)-6-(4-(2-(((R)-1,4-dioxan-2-yl)methoxy)phenyl)piperidin-1-yl)-2-azaspiro[3.4]octan-2-yl)-1,3,4-oxadiazole]
- Emax [1]: 0%
- EC50 [1]: > 25000 nM
- Emax [2]: 75%
- EC50 [2]: < 0.4 nM

Compound: Cc1coc(N2CC3(CC[C@@H](N4CCC(c5ccc(F)cc5OCC(C)(C)O)CC4)C3)C2)n1 [Example 3N, (R)-1-(5-fluoro-2-(1-(2-(4-methyloxazol-2-yl)-2-azaspiro[3.4]octan-6-yl)piperidin-4-yl)phenoxy)-2-methylpropan-2-ol]
- Emax [1]: 0%
- EC50 [1]: > 25000 nM
- Emax [2]: 0%
- EC50 [2]: > 25000 nM

Compound: Cc1coc(N2CC3(CC[C@@H](N4CCC(c5ccccc5OCC(C)(C)O)CC4)C3)C2)n1 [Example 3O, (R)-2-methyl-1-(2-(1-(2-(4-methyloxazol-2-yl)-2-azaspiro[3.4]octan-6-yl)piperidin-4-yl)phenoxy)propan-2-ol]
- Emax [1]: 0%
- EC50 [1]: > 25000 nM
- Emax [2]: 1%
- EC50 [2]: > 25000 nM

Compound: COc1ccccc1C1CCN([C@@H]2CCC3(C2)CN(c2ncon2)C3)CC1 [Example 4A, (R)-3-(6-(4-(2-methoxyphenyl)piperidin-1-yl)-2-azaspiro[3.4]octan-2-yl)-1,2,4-oxadiazole]
- Emax [1]: 0%
- EC50 [1]: > 25000 nM
- Emax [2]: 77%
- EC50 [2]: < 0.4 nM

Compound: COc1ccccc1C1CCN([C@@H]2CCC3(C2)CN(c2cncnc2)C3)CC1 [Example 5A, (R)-6-(4-(2-methoxyphenyl)piperidin-1-yl)-2-(pyrimidin-5-yl)-2-azaspiro[3.4]octane]
- Emax [1]: 0%
- EC50 [1]: > 25000 nM
- Emax [2]: 64%
- EC50 [2]: 2 nM

Compound: CC(C)(O)COc1ccccc1C1CCN([C@@H]2CCC3(C2)CN(c2cncnc2)C3)CC1 [Example 5B, (R)-2-methyl-1-(2-(1-(2-(pyrimidin-5-yl)-2-azaspiro[3.4]octan-6-yl)piperidin-4-yl)phenoxy)propan-2-ol]
- Emax [1]: 0%
- EC50 [1]: > 25000 nM
- Emax [2]: 53%
- EC50 [2]: 4 nM

Compound: Cc1ncncc1N1CC2(CC[C@@H](N3CCC(c4ccccc4OCC(C)(C)O)CC3)C2)C1 [Example 5C, (R)-2-methyl-1-(2-(1-(2-(4-methylpyrimidin-5-yl)-2-azaspiro[3.4]octan-6-yl)piperidin-4-yl)phenoxy)propan-2-ol]
- Emax [1]: 0%
- EC50 [1]: > 25000 nM
- Emax [2]: 6%
- EC50 [2]: > 25000 nM

Compound: COc1ccccc1C1CCN([C@@H]2CCC3(C2)CN(c2ccc(C)nc2)C3)CC1 [Example 5D, (R)-6-(4-(2-methoxyphenyl)piperidin-1-yl)-2-(6-methylpyridin-3-yl)-2-azaspiro[3.4]octane]
- Emax [1]: 0%
- EC50 [1]: > 25000 nM
- Emax [2]: 36%
- EC50 [2]: 156 nM

Compound: COc1ccccc1C1CCN([C@@H]2CCC3(C2)CN(c2cnc(C)nc2)C3)CC1 [Example 5E, (R)-6-(4-(2-methoxyphenyl)piperidin-1-yl)-2-(2-methylpyrimidin-5-yl)-2-azaspiro[3.4]octane]
- Emax [1]: 0%
- EC50 [1]: > 25000 nM
- Emax [2]: 2%
- EC50 [2]: > 25000 nM

Compound: COc1ccccc1C1CCN([C@@H]2CCC3(C2)CN(c2cncc(F)c2)C3)CC1 [Example 5F, (R)-2-(5-fluoropyridin-3-yl)-6-(4-(2-methoxyphenyl)piperidin-1-yl)-2-azaspiro[3.4]octane]
- Emax [1]: 0%
- EC50 [1]: > 25000 nM
- Emax [2]: 59%
- EC50 [2]: 6 nM

Compound: COc1ccccc1C1CCN([C@@H]2CCC3(C2)CN(c2cncc(C)n2)C3)CC1 [Example 5G, (R)-6-(4-(2-methoxyphenyl)piperidin-1-yl)-2-(6-methylpyrazin-2-yl)-2-azaspiro[3.4]octane]
- Emax [1]: 0%
- EC50 [1]: > 25000 nM
- Emax [2]: 1%
- EC50 [2]: > 25000 nM

Compound: COc1ccccc1C1CCN([C@@H]2CCC3(C2)CN(c2cnccn2)C3)CC1 [Example 5H, (R)-6-(4-(2-methoxyphenyl)piperidin-1-yl)-2-(pyrazin-2-yl)-2-azaspiro[3.4]octane]
- Emax [1]: 0%
- EC50 [1]: > 25000 nM
- Emax [2]: 61%
- EC50 [2]: 1 nM

Compound: COc1ccccc1C1CCN([C@@H]2CCC3(C2)CN(c2nccnc2C(F)(F)F)C3)CC1 [Example 5I, (R)-6-(4-(2-methoxyphenyl)piperidin-1-yl)-2-(3-(trifluoromethyl)pyrazin-2-yl)-2-azaspiro[3.4]octane]
- Emax [1]: 0%
- EC50 [1]: > 25000 nM
- Emax [2]: 16%
- EC50 [2]: 84 nM

Compound: COc1ccccc1C1CCN([C@@H]2CCC3(C2)CN(c2nccnc2C)C3)CC1 [Example 5J, (R)-6-(4-(2-methoxyphenyl)piperidin-1-yl)-2-(3-methylpyrazin-2-yl)-2-azaspiro[3.4]octane]
- Emax [1]: 0%
- EC50 [1]: > 25000 nM
- Emax [2]: 60%
- EC50 [2]: 9 nM
